In general, IC50 refers to the midpoint of a concentration-inhibition curve.

Here are results for 73 molecules from ChEMBL document CHEMBL5728837, “Non-fused tricyclic compounds” (2021).

A value given as a limit tells only on which side of the number the result lay.

The experiment is described as follows: YAP Reporter Assay: HEK293T cells stably transfected with 8XTBD luciferase reporter and pRLTK in 384-well plates were treated with the test compounds, starting from 3 μM (final concentration in assay plate), 1:3 dilution, and 10 points in quadruplicates. Post 24-hr incubation with compounds at 37° C. and 5% CO2, cells were lysed and 8XTBD-driven firefly luciferase and control TK-driven renilla luciferase activities were measured using Promega Dual-Luciferase Reporter Assay System.Reagents: The reagents used for this study are: DMEM: Invitrogen #11960077, Dual-Glo Luciferase Assay System: Promega-E2980, Puromycin Dihydrochloride: Invitrogen-A1113803, 384-well plate: PerkinElmer-6007480, L-GLUTAMINE: Invitrogen-25030164, Hygromycin B: Invitrogen-10687010, and Penicillin-Streptomycin: Merk-TMS-AB2-CMedia: The media used for this assay were: Culture Medium: DMEM+1 ug/mL puromycin+200 ug/mL hygromycin (with 10% FBS+1 mM L-glutamine); and Assay Medium: DMEM (with 10% FBS+1 mM L-glutamine+1× P/S).Cell Plating: The appropriate media was warmed at 37° C. by water bath: Culture Medium, Assay Medium, 1*D-PBS, 0.05% trypsin-EDTA. The cells were trypsinized after removing all media, then washed with 1*sterile D-PBS and then with 2 ml 0.05% trypsin-EDTA. The cells were then incubated at RT for one minute. Then 10 ml/75 cm2 flask Assay Medium was added to each flask. Using a 10 ml pipette, the cells were then gently resuspended in the media, until the clumps completely disappeared. The cells were then transferred into 50 ml centrifuge tubes and were centrifuged at 800 rpm for 5 mins. The medium was removed and the cells were resuspended with Assay Medium. An aliquot of cells was used to count the cell density (cells/nil). The cell suspension was then diluted with Assay Medium to a concentration of 6×10^4 cells/ml. 50 ul cells suspension was then plated to 384-well plate (PerkinElmer-6007480), 3×10^3 cells/well and the cells were incubated in an incubator at 37° C., 5% CO2.Compound Treatment: In the afternoon (incubation of the plate with 3-4 hrs), the test compounds were added by Echo, starting from 3 uM (final concentration in the assay plate), 1:3 dilution, 10 points, quadruplicates. The plate was placed at 37° C., 5% CO2 incubator for 24 hrs.Detection: The Dual-Glo Luciferase Reagent was prepared by transferring the contents of one bottle of Dual-Glo Luciferase Buffer to one bottle of Dual-Glo Luciferase Substrate to create the Dual-Glo Luciferase Reagent. Mixing was performed by inversion until the substrate was thoroughly dissolved. After mixing, the reagent was aliquoted into 15 ml tubes. In the afternoon (24 hrs post compound treatment), the DMEM+ medium in the 384 well plates were aspirated by Microplate Washer.Measuring firefly luciferase activity: 20 ul Dual-Glo Luciferase Reagent was added to the 384-well plates. The plates were protected from light to prevent interference with the assay. The plates were shaken for 1 min followed centrifuging plates at 1000 rpm for 30 seconds. After waiting at least 10 minutes, the firefly luminescence was measured by Envision.Measuring renilla luciferase activity: 20 ul Stop-Glo Reagent was added to the 384-well plates. The plates were shaken for lmin and then centrifuged at 1000 rpm for 30 seconds. After waiting at least 10 minutes, the renilla luminescence was measured by Envision. The note with it: HEK-293T, 24 h. A general note: Reporter assays use an easily measured gene product as a stand-in for the process of interest.

Regarding `OCCn1nnc(-c2cc(F)ccc2Nc2ccc(C(F)(F)F)cc2)n1`, the IC50 was less than 0.1 µM.
With `NC(=O)NCCn1nnc(-c2ccccc2Nc2ccc(C(F)(F)F)cc2)n1`, the IC50 is less than 0.1 µM.
Consider `[O-][S+]1CC(O)(Cn2nnc(-c3ccccc3Nc3ccc(C(F)(F)F)cc3)n2)C1` (stereo not drawn), for which the IC50 entry is “in the range around 0.55 µM”.
The entry for `COC1CCCC1n1nnc(-c2ccccc2Nc2ccc(C(F)(F)F)cc2)n1` (stereo not drawn) is “in the range around 0.55 µM”; for `CN(C)CCCn1nnc(-c2ccccc2Nc2ccc(OC(F)(F)F)cc2)n1` it is “in the range around 3 µM”; for `CO[C@H](C)[C@H](C)n1nnc(-c2ccccc2Nc2ccc(C(F)(F)F)cc2)n1` it is “in the range around 0.55 µM”.
With `OCCn1cnc(-c2ccccc2Nc2ccc(C(F)(F)F)cc2)c1`, the IC50 result is “in the range around 0.55 µM”.
The entry for `CC(=O)NCCCn1nnc(-c2ccccc2Nc2ccc(C(F)(F)F)cc2)n1` is “in the range around 0.55 µM”.
The figure for `C[C@H](O)[C@@H](C)n1nnc(-c2ccccc2Nc2ccc(C(F)(F)F)cc2)n1` is less than 0.1 µM; for `OCC(O)Cn1nnc(-c2ccccc2Nc2ccc(C(F)(F)F)cc2)n1` (stereo not drawn) it is less than 0.1 µM; for `[N-]=[N+]=Nc1ccc(Nc2ccccc2-c2nnn(CCO)n2)cc1` it is “in the range around 0.55 µM”.
With `CC(C)C(=O)Cn1nnc(-c2ccccc2Nc2ccc(C(F)(F)F)cc2)n1` the entry was “in the range around 0.55 µM”; with `NC(=O)OCCn1nnc(-c2ccccc2Nc2ccc(C(F)(F)F)cc2)n1`, less than 0.1 µM.
On to `C[C@H](c1ccccc1)N1C(=O)OC[C@H]1Cn1nnc(-c2ccccc2Nc2ccc(C(F)(F)F)cc2)n1`, for which the IC50 entry is “in the range around 0.55 µM”.
With `FC(F)(F)c1ccc(Nc2ccccc2-c2nnn(Cc3ccccn3)n2)cc1` the entry was “in the range around 0.55 µM”; with `OC1(Cn2nnc(-c3ccccc3Nc3ccc(C(F)(F)F)cc3)n2)CCCN(c2ccccc2)C1` (stereo not drawn), “in the range around 0.55 µM”; with `OCCn1nnc(-c2cccnc2Nc2ccc(C(F)(F)F)cc2)n1`, “in the range around 0.55 µM”.
With `COc1ccc(Nc2ccccc2-c2nnn(CCO)n2)cc1` the entry was “in the range around 0.55 µM”.
With `FC(F)(F)c1ccc(Nc2ccccc2-c2nnn(CC3COC3)n2)cc1` the entry was “in the range around 0.55 µM”; with `Cn1nc(-c2ccccc2Nc2ccc(C(F)(F)F)cc2)nc1CCO`, “in the range around 3 µM”; with `FC(F)(F)c1ccc(Nc2ccccc2-c2nnn(-c3ccccn3)n2)cc1`, “in the range around 0.55 µM”.
As for `O=C1NCC(Cn2nnc(-c3ccccc3Nc3ccc(C(F)(F)F)cc3)n2)O1` (stereo not drawn), the IC50 result was “in the range around 0.55 µM”.
The figure for `COCCn1nnc(-c2ccccc2Nc2ccc(C(F)(F)F)cc2)n1` is less than 0.1 µM; for `CO[C@H](C)[C@@H](C)n1nnc(-c2ccccc2Nc2ccc(C(F)(F)F)cc2)n1` it is “in the range around 0.55 µM”; for `OCC(CO)n1nnc(-c2ccccc2Nc2ccc(C(F)(F)F)cc2)n1` it is less than 0.1 µM.
For `OC1(Cn2nnc(-c3ccccc3Nc3ccc(C(F)(F)F)cc3)n2)COC1`, the IC50 is less than 0.1 µM.
As to `OCCn1nnc(-c2ccccc2Nc2ccc(Cl)c(Cl)c2)n1`, the 50% inhibitory concentration (IC50) result is “in the range around 0.55 µM”.
The entry for `CC(=O)N1CC(O)(Cn2nnc(-c3ccccc3Nc3ccc(C(F)(F)F)cc3)n2)C1` is “in the range around 0.55 µM”.
With `CCc1cccc(Nc2ccccc2-c2nnn(CCO)n2)c1` the entry was “in the range around 0.55 µM”.
With `O[C@H]1CCC[C@H]1n1nnc(-c2ccccc2Nc2ccc(C(F)(F)F)cc2)n1` the figure was less than 0.1 µM; with `CC(C)(O)Cn1nnc(-c2ccccc2Nc2ccc(C(F)(F)F)cc2)n1`, less than 0.1 µM; with `CCOC(=O)Cn1cc(-c2ccccc2Nc2cccc(C(F)(F)F)c2)nn1`, “in the range around 3 µM”.
For the molecule `CCOC(=O)Cn1nnc(-c2ccccc2Nc2ccc(F)cc2)n1`, the IC50 result was “in the range around 0.55 µM”.
With `Cn1nnc(-c2ccccc2Nc2ccc(C(F)(F)F)cc2)n1` the entry was “in the range around 0.55 µM”; with `FC(F)(F)c1ccc(Nc2ccccc2-c2nnn(C3CNC3)n2)cc1`, “in the range around 3 µM”.
With `FCCn1nnc(-c2ccccc2Nc2ccc(C(F)(F)F)cc2)n1` the entry was “in the range around 0.55 µM”; with `O=C(Cn1nnc(-c2ccccc2Nc2ccc(C(F)(F)F)cc2)n1)C1CC1`, “in the range around 0.55 µM”.
With `C[C@@H](O)[C@H](C)n1nnc(-c2ccccc2Nc2ccc(C(F)(F)F)cc2)n1` the figure was less than 0.1 µM.
Take `O=C1N[C@H](Cn2nnc(-c3ccccc3Nc3ccc(C(F)(F)F)cc3)n2)CO1`: the 50% inhibitory concentration (IC50) result is “in the range around 0.55 µM”.
Turning to `O=C(O)Cn1cc(-c2ccccc2Nc2ccc(C(F)(F)F)cc2)cn1`, the half-maximal inhibitory concentration (IC50) result was “in the range around 0.55 µM”.
The figure for `CO[C@@H](C)[C@@H](C)n1nnc(-c2ccccc2Nc2ccc(C(F)(F)F)cc2)n1` is less than 0.1 µM; for `NS(=O)(=O)Cn1nnc(-c2ccccc2Nc2ccc(C(F)(F)F)cc2)n1` it is “in the range around 0.55 µM”.
`CCOC(=O)Cn1ncc(-c2ccccc2Nc2cccc(C(F)(F)F)c2)c1C`: the IC50 result was “in the range around 3 µM”.
Consider `COCCn1nnc(-c2ccccc2Nc2cccc(C(F)(F)F)c2)n1`, for which the IC50 result is “in the range around 3 µM”.
With `OCCn1nnc(-c2ccccc2Nc2cccc(Cl)c2)n1` the entry was “in the range around 3 µM”; with `FC(F)(F)c1ccc(Nc2ccccc2-c2nnn(-c3cccnc3)n2)cc1`, “in the range around 3 µM”; with `FC(F)(F)Oc1ccc(Nc2ccccc2-c2nnn(Cc3cccnc3)n2)cc1`, “in the range around 3 µM”.
In the case of `OCCn1nnc(-c2ccccc2Nc2ccc(Br)cc2)n1`, the IC50 entry is “in the range around 0.55 µM”.
Regarding `OCCn1nnc(-c2ccccc2Nc2cccc(F)c2)n1`, the half-maximal inhibitory concentration (IC50) entry was “in the range around 0.55 µM”.
The entry for `CCOC(=O)Cn1cc(-c2ccccc2Nc2ccc(C(F)(F)F)cc2)c(C)n1` is “in the range around 0.55 µM”.
Turning to `OCCCn1nnc(-c2ccccc2Nc2cccc(C(F)(F)F)c2)n1`, the IC50 entry is “in the range around 0.55 µM”.
The entry for `CC(=O)N1CCCC(O)(Cn2nnc(-c3ccccc3Nc3ccc(C(F)(F)F)cc3)n2)C1` (stereo not drawn) is “in the range around 0.55 µM”; for `NC(=O)Cn1nnc(-c2ccccc2Nc2ccc(C(F)(F)F)cc2)n1` it is less than 0.1 µM; for `OCCn1nnc(-c2ccccc2Nc2ccc(F)c(F)c2)n1` it is “in the range around 0.55 µM”.
With `OC1(Cn2nnc(-c3ccccc3Nc3ccc(C(F)(F)F)cc3)n2)CCCOC1` (stereo not drawn) the entry was “in the range around 0.55 µM”; with `CNCCCn1nnc(-c2ccccc2Nc2ccc(C(F)(F)F)cc2)n1`, “in the range around 3 µM”.
Consider `CNC(=O)Cn1nnc(-c2ccccc2Nc2ccc(C(F)(F)F)cc2)n1`, for which the IC50 is less than 0.1 µM.
The entry for `OC1(Cn2nnc(-c3ccccc3Nc3ccc(C(F)(F)F)cc3)n2)CCNC1` (stereo not drawn) is “in the range around 0.55 µM”.
With `OCCn1nnc(-c2cnccc2Nc2ccc(C(F)(F)F)cc2)n1` the entry was “in the range around 3 µM”.
In the case of `CC(C)C(O)Cn1nnc(-c2ccccc2Nc2ccc(C(F)(F)F)cc2)n1` (stereo not drawn), the IC50 result is “in the range around 0.55 µM”.
On to `FC(F)(F)c1ccc(Nc2ccccc2-c2nnn(CC3CCC3)n2)cc1`, for which the IC50 entry was “in the range around 0.55 µM”.
With `CCN(CC)C(=O)Cn1nnc(-c2ccccc2Nc2ccc(C(F)(F)F)cc2)n1` the entry was “in the range around 3 µM”; with `O=C(Cn1nnc(-c2ccccc2Nc2ccc(C(F)(F)F)cc2)n1)NO`, “in the range around 0.55 µM”; with `OCCn1nnc(-c2ccccc2Nc2cc(Cl)c(Cl)c(Cl)c2)n1`, “in the range around 3 µM”.
On to `CNC(=O)Cn1nnc(-c2ccccc2Nc2ccc(OC(F)(F)F)cc2)n1`, for which the half-maximal inhibitory concentration (IC50) entry was “in the range around 0.55 µM”.
As to `CCOC(=O)C(C)n1nnc(-c2ccccc2Nc2ccc(C(F)(F)F)cc2)n1` (stereo not drawn), the IC50 is less than 0.1 µM.
The figure for `COc1ccc(Nc2ccc(C(F)(F)F)cc2)c(-c2nnn(CCO)n2)c1` is less than 0.1 µM.
Turning to `OCCn1nnc(-c2cc(C3CC3)ccc2Nc2ccc(C(F)(F)F)cc2)n1`, the IC50 was less than 0.1 µM.
With `OC1(Cn2nnc(-c3ccccc3Nc3ccc(C(F)(F)F)cc3)n2)CC1` the figure was less than 0.1 µM; with `NCCn1nnc(-c2ccccc2Nc2ccc(C(F)(F)F)cc2)n1`, “in the range around 0.55 µM”; with `OCCn1nnc(-c2cccc(F)c2Nc2ccc(C(F)(F)F)cc2)n1`, less than 0.1 µM.
With `CC(O)Cn1nnc(-c2ccccc2Nc2ccc(C(F)(F)F)cc2)n1` (stereo not drawn) the figure was less than 0.1 µM; with `CC(CN)n1nnc(-c2ccccc2Nc2ccc(C(F)(F)F)cc2)n1` (stereo not drawn), less than 0.1 µM.
